Usually pest or weed control stands for how far the test organism was held down.

SMILES strings stand for the structures. Marks after values point to notes of the source that are not given here.

Common to all, as to assay type: in vivo
Assay [1] has as its system Zymoseptoria tritici (the causal agent of wheat leaf blotch). The assay can be described thus: Test D: preventive spray on wheat seedlings, disease rating (100 = 100% control; * 50 ppm, ** 10 ppm, *** 250 ppm). The following applies: 100 = 100% disease control; for Test D disease control rating / pest or weed control at 250 ppm: 250 ppm test suspension. An excerpt: (§1) General protocol for preparing test suspensions for Tests A-E: the test compounds were first dissolved in acetone in an amount equal to 3% of the final volume and then suspended at the desired concentration (in ppm) in acetone and purified water (50/50 mix by volume) containing 250 ppm of the surfactant […] (polyhydric alcohol esters). The resulting test suspensions were then used in Tests A-E.
The test solution was sprayed to the point of run-off on wheat seedlings. The following day the seedlings were inoculated with a spore suspension of Zymoseptoria tritici (the causal agent of wheat leaf blotch) and incubated in a saturated atmosphere at 24° C. for 48 h, and then moved to a growth chamber at 20° C. for 17 days, after which time disease ratings were made.
(§2) Results for Tests A-E are given in Table A. In the Table, a rating of 100 indicates 100% disease control and a rating of 0 indicates no disease control (relative to the controls). An asterisk “*” or a double asterisk “**” or a triple asterisk “***” next to the rating value indicates a 50 ppm, 10 ppm and 250 ppm test suspension was used, respectively. A dash (-) indicates the compound was not tested.

For assay [2], the system named is Phakopsora pachyrhizi (the causal agent of Asian soybean rust). Kind of assay: Test A: preventive spray on soybean seedlings, visual disease rating (100 = 100% control; * 50 ppm, ** 10 ppm, *** 250 ppm). The following applies: 100 = 100% disease control. The method, boiled down: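 Preventive test: one day after spraying compound (acetone/water suspension, 250 ppm PEG400), seedlings received rust spore inoculum, 24 h in saturated air then 8 days in growth chamber, both at 22 °C. Disease control scored visually, 100 = complete, 0 = none, relative to untreated controls.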

For assay [3], the system named is Uncinula necator (the causal agent of grape powdery mildew). The assay can be described thus: Test C: preventive spray on grape seedlings, disease rating (100 = 100% control; * 50 ppm, ** 10 ppm, *** 250 ppm). The following applies: 100 = 100% disease control.
Text: as §1
The test solution was sprayed to the point of run-off on grape seedlings. The following day the seedlings were inoculated with a spore suspension of Uncinula necator (the causal agent of grape powdery mildew) and incubated in a growth chamber at 20° C. for 12 days, after which time disease ratings were made.
as §2

Assay [4] has as its system Puccinia recondita f. sp. tritici (the causal agent of wheat leaf rust). The assay can be described thus: Test B: preventive spray on wheat seedlings, disease rating (100 = 100% control; * 50 ppm, ** 10 ppm, *** 250 ppm). The following applies: 100 = 100% disease control; for pest or weed control at 10 ppm / pest or weed control at 50 ppm: Puccinia recondita. Summed up: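 Preventive test: Puccinia recondita f. sp. tritici spores were inoculated one day after run-off spraying of wheat seedlings with test suspension (acetone/water 50/50, 250 ppm PEG400). After 24 h in saturated air and 6 days in a growth chamber, both at 20° C, control was scored 0–100 versus untreated plants.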

The subject of assay [5] is Blumeria graminis f. sp. tritici (the causal agent of wheat powdery mildew). Kind of assay: Test E: preventive spray on wheat seedlings, visual disease rating (100 = 100% control; * 50 ppm, ** 10 ppm, *** 250 ppm). The following applies: 100 = 100% disease control; for Test E disease control rating / pest or weed control at 250 ppm: 250 ppm test suspension.
Text: as §1
The test suspension was sprayed to the point of run-off on wheat seedlings. The following day the seedlings were inoculated with a spore dust of Blumeria graminis f. sp. tritici, (also known as Erysiphe graminis f. sp. tritici, the causal agent of wheat powdery mildew) and incubated in a growth chamber at 20° C. for 8 days, after which time visual disease ratings were made.
as §2

The mark [6] stands for this setting: 10 ppm test suspension, soybean seedlings.
[7] abbreviates: 250 ppm test suspension, grape seedlings.
Setting [8] is: 10 ppm test suspension, wheat seedlings.
[9] abbreviates: 50 ppm test suspension, 0 = no control.
[10] abbreviates: 250 ppm test suspension, 0 = no control.
Setting [11] is: Zymoseptoria tritici, 0 = no control.
Setting [12] is: Phakopsora pachyrhizi, 10 ppm test suspension, 0 = no control.
[13] abbreviates: Erysiphe necator, 250 ppm test suspension, 0 = no control.
The mark [14] stands for this setting: 10 ppm test suspension, 0 = no control.
Setting [15] is: Blumeria graminis, 0 = no control.
Setting [16] is: Erysiphe necator, 50 ppm test suspension, 0 = no control.
Setting [17] is: Zymoseptoria tritici, wheat seedlings.
[18] abbreviates: Erysiphe necator, 250 ppm test suspension, grape seedlings.
The mark [19] stands for this setting: Blumeria graminis, wheat seedlings.

With `CCO/C(=C\Oc1ccc(Cn2cc(C(=O)OCC(C)C)cn2)cc1)C(F)(F)F` [compound 219], in assay [1] (wheat seedlings), the “Test D disease control rating” value was 0*** %. Also, the “Test A disease control rating” value in assay [2] (setting [6]) stood at 100%. In assay [3] (setting [7]), the “Test C disease control rating” value is recorded as 92*** %. For the same compound, the “Test B disease control rating” value in assay [4] (setting [8]) is listed as 0%. For the same compound, in assay [5] (wheat seedlings), the “Test E disease control rating” value was 83*** %.
Turning to `CCNC(=O)c1cnn(Cc2ccc(O/C=C(\OCC)C(F)(F)F)cc2)c1` [compound 437], the “Test D disease control rating” value in assay [1] (0 = no control) is 78*** %. The “Test A disease control rating” value in assay [2] (setting [9]) is given as 77%. Moreover, the “Test C disease control rating” value in assay [3] (setting [10]) is 77*** %. Moreover, the “Test B disease control rating” value in assay [4] (setting [9]) is 0%. Further, in assay [5] (0 = no control), the “Test E disease control rating” value is listed as 69*** %.
For `CC#CCOC(=O)c1cnn(Cc2ccc(O/C=C(\OCC)C(F)(F)F)cc2)c1` [compound 243], the “Test D disease control rating” value in assay [1] (wheat seedlings) is 0*** %. Moreover, the “Test A disease control rating” value in assay [2] (setting [6]) was found to be 100%. In addition, in assay [3] (setting [7]), the “Test C disease control rating” value was 29*** %. Also, the “Test B disease control rating” value in assay [4] (setting [8]) is on record as 0%. Also, the “Test E disease control rating” value in assay [5] (wheat seedlings) is listed as 56*** %.
Take `CCO/C(=C\Oc1ccc(Cn2cc(C(=O)NCC(F)F)cn2)cc1)C(F)(F)F` [compound 436]: the “Test A disease control rating” value in assay [2] (setting [9]) turned out to be 99%. Moreover, in assay [3] (setting [10]), the “Test C disease control rating” value is reported as 48*** %. Also, the “Test B disease control rating” value in assay [4] (setting [9]) is reported as 0%. Moreover, in assay [5] (0 = no control), the “Test E disease control rating” value is reported as 0*** %.
Turning to `CCOC(=O)c1cnn(CSc2ccc(O/C=C(\OCC)C(F)(F)F)cc2)c1` [compound 457], the values for the pest or weed control at 250 ppm in assay [1] (setting [11]), in assay [3] (setting [13]) and in assay [5] (setting [15]) were 7%, 73% and 0%, respectively. Further, the pest or weed control at 10 ppm in assay [2] (setting [12]) turned out to be 89%; in assay [4] (setting [14]) it was 0%.
For the compound `CCO/C(=C\Oc1ccc(Cn2cc(C(=O)OCCC#N)cn2)cc1)C(F)(F)F` [compound 245], the “Test D disease control rating” value in assay [1] (wheat seedlings) is on record as 18*** %. Further, the “Test A disease control rating” value in assay [2] (setting [6]) amounted to 100%. The “Test C disease control rating” value in assay [3] (setting [7]) is given as 24*** %. The “Test B disease control rating” value in assay [4] (setting [8]) stood at 0%. For the same compound, the “Test E disease control rating” value in assay [5] (wheat seedlings) is listed as 76*** %.
On the same counts, the results for `O=C(NCC1CC1)c1cnc(Cc2ccc(OCC(O)(O)C(F)(F)F)cc2)s1` [compound 256] are 95*** %, 73%, 15*** %, 0% and 82*** %.
With `CCOC(=O)c1cnn(Cc2ccc(O/C=C(\OCC)C(F)(F)F)cc2F)c1` [compound 375], the “Test D disease control rating” value in assay [1] (0 = no control) is 95*** %. In assay [2] (setting [9]), the “Test A disease control rating” value worked out at 100%. Also, in assay [3] (setting [10]), the “Test C disease control rating” value is on record as 66*** %. Moreover, the “Test B disease control rating” value in assay [4] (setting [9]) is recorded as 0%. Besides, the “Test E disease control rating” value in assay [5] (0 = no control) is 99*** %.
In turn, `CCOC(=O)c1cnn(Cc2ccc(OCC3(C(F)(F)F)OCCO3)c(F)c2)c1` [Compound 263, ethyl 1-[[3-fluoro-4-[[2-(trifluoromethyl)-1,3-dioxolan-2-yl]methoxy]phenyl]methyl]-1H-pyrazole-4-carboxylate] displayed a pest or weed control at 50 ppm in assay [3] (setting [16]) of 100%. In assay [4] (setting [14]), the pest or weed control at 10 ppm came to 0%.
In the case of `COC(COc1ccc(Cn2cc(Br)cn2)cc1)(O[Si](C)(C)C)C(F)(F)F` (stereo not shown) [compound 395], the pest or weed control at 50 ppm turned out to be 100% in assay [2] (Phakopsora pachyrhizi, 50 ppm test suspension, 0 = no control); 100% in assay [3] (setting [16]); 100% in assay [4] (setting [9]).
In the case of `CCOC(=O)c1cnn(COc2ccc(O/C=C(\OCC)C(F)(F)F)cc2)c1` [Compound 364, ethyl 1-[[4-[[(1Z)-2-ethoxy-3,3,3-trifluoro-1-propen-1-yl]oxy]phenoxy]methyl]-1H-pyrazole-4-carboxylate], the pest or weed control at 50 ppm in assay [1] (Zymoseptoria tritici, 50 ppm test suspension, 0 = no control) was found to be 0%; in assay [3] (setting [16]) it was 100%; in assay [4] (setting [9]), 0%; in assay [5] (Blumeria graminis, 50 ppm test suspension, 0 = no control), 56%.
Regarding `O=C(COC(=O)c1cnn(Cc2ccc(OCC3(C(F)(F)F)OCCO3)cc2)c1)c1ccccc1` [compound 170], the “Test A disease control rating” value in assay [2] (setting [6]) was 100%. Moreover, the “Test C disease control rating” value in assay [3] (50 ppm test suspension, grape seedlings) is 100* %. Moreover, in assay [4] (setting [8]), the “Test B disease control rating” value was determined as 0%.
`CCO/C(=C\Oc1ccc(Cn2cc(C(=O)OCCCCl)cn2)cc1)C(F)(F)F` [Compound 221, 3-chloropropyl 1-[[4-[[(1Z)-2-ethoxy-3,3,3-trifluoro-1-propen-1-yl]oxy]phenyl]methyl]-1H-pyrazole-4-carboxylate]: the pest or weed control at 250 ppm was determined as 10% in assay [1] (setting [17]), 41% in assay [3] (setting [18]) and 95% in assay [5] (setting [19]). In assay [4] (setting [8]), the pest or weed control at 10 ppm was found to be 0%.
Turning to `CCOC(=O)c1cnn(COc2ccc(O/C=C(\OCC)C(F)(F)F)c(F)c2)c1` [compound 454], the pest or weed control at 10 ppm in assay [2] (setting [12]) came out at 100%; in assay [3] (Erysiphe necator, 10 ppm test suspension, 0 = no control), 100%; in assay [4] (setting [14]), 0%.
Consider `CCOC(=O)c1cnn(Cc2cccc(O/C=C(\OCC)C(F)(F)F)c2)c1` [Compound 265, ethyl 1-[[3-[[(1Z)-2-ethoxy-3,3,3-trifluoro-1-propen-1-yl]oxy]phenyl]methyl]-1H-pyrazole-4-carboxylate], for which the pest or weed control at 50 ppm in assay [3] (setting [16]) worked out at 98%; in assay [4] (setting [9]), 0%.
On to `CCCCOC(=O)c1cnn(Cc2ccc(O/C=C(\OCC)C(F)(F)F)cc2)c1` [Compound 218, butyl 1-[[4-[[(1Z)-2-ethoxy-3,3,3-trifluoro-1-propen-1-yl]oxy]phenyl]methyl]-1H-pyrazole-4-carboxylate], for which the pest or weed control at 250 ppm was found to be 53% in assay [1] (setting [17]), 75% in assay [3] (setting [18]) and 90% in assay [5] (setting [19]). In addition, the pest or weed control at 10 ppm in assay [4] (setting [8]) was 0%.
As for `CCO/C(=C\Oc1cccc(Cn2cc(C(=O)NCc3ncccn3)cn2)c1)C(F)(F)F` [compound 402], the “Test D disease control rating” value in assay [1] (0 = no control) was 5*** %. Also, the “Test A disease control rating” value in assay [2] (setting [9]) is reported as 97%. Also, in assay [3] (setting [10]), the “Test C disease control rating” value is given as 48*** %. Further, in assay [5] (0 = no control), the “Test E disease control rating” value is given as 0*** %.
On the same counts, the results for `CCO/C(=C\Oc1cccc(Cn2cc(C(=O)NC)cn2)c1)C(F)(F)F` [compound 403] are 17*** %, 54%, 74*** % and 0*** %.
With `CCOC(=O)c1cnn(Cc2cccc(O/C=C(\OCC)C(F)(F)F)c2F)c1` [compound 301], the “Test A disease control rating” value in assay [2] (setting [9]) amounted to 100%. Further, in assay [3] (setting [9]), the “Test C disease control rating” value is reported as 100* %. The “Test B disease control rating” value in assay [4] (setting [9]) was 0%.
As for `CCOC(=O)c1cnn(Cc2ccc(OCC3(C(F)(F)F)OCCO3)s2)c1` [compound 273], the pest or weed control at 250 ppm in assay [1] (setting [11]) worked out at 20%; in assay [3] (setting [13]) it was 49%; in assay [5] (setting [15]), 65%. The pest or weed control at 50 ppm in assay [4] (setting [9]) is 0%.
Turning to `CCOC(=O)c1cnn(Cc2ccc(OCC(O)(O)C(F)(F)F)c(F)c2F)c1` [Compound 431], in assay [1] (0 = no control), the “Test D disease control rating” value came to 93%. Further, the “Test C disease control rating” value in assay [3] (setting [10]) was found to be 36%. In addition, the “Test E disease control rating” value in assay [5] (0 = no control) worked out at 96%.

(Values after US20240122180A1, “FUNGICIDAL HALOMETHYL KETONES AND HYDRATES AND THEIR MIXTURES” (FMC Corporation, priority 2020, published 2024).)
